Test results: ChEMBL document CHEMBL3407424, “Synthesis and evaluation of new α-methylene-γ-lactone carbamates with NO production inhibitory effects in lipopolysaccharide-induced RAW 264.7 macrophages” (Eur J Med Chem, 2015)

Assays:
RAW264.7 [1] = test: Antiinflammatory activity against mouse RAW264.7 cells assessed as inhibition of LPS-induced NO production at 25 uM incubated for 30 mins by microplate reader analysis; assay type: functional; conditions: RAW264.7, 0.5 h
[2] = Cytotoxicity against mouse RAW264.7 cells after 18 hrs by MTT assay; assay type: cell-based
RAW264.7 [3] = test: Antiinflammatory activity against mouse RAW264.7 cells assessed as inhibition of LPS-induced NO production incubated for 30 mins by microplate reader analysis; assay type: functional, cell-based; conditions: RAW264.7, 0.5 h

| IC50 (RAW264.7 [3]) [µM] | SMILES | inhibition at 25 µM (RAW264.7 [1]) [%] | CC50 at 18 h [2] [µM] |
| --- | --- | --- | --- |
| 0.39 | C=C1C(=O)OC[C@H]1CCOC(=O)Nc1ccc(Cl)cc1 | > 94 | 9.14 |
| 0.48 | C=C1C(=O)OC[C@H]1CCOC(=O)Nc1cc(C)cc(C)c1 | > 94 | 12.7 |
| 0.72 | C=C1C(=O)OC[C@@H]1CCOC(=O)Nc1ccc(Br)cc1 | > 94 | 19.8 |
| 0.86 | C=C1C(=O)OC[C@@H]1CCOC(=O)Nc1ccc(C(=O)OCCCC)cc1 | > 94 | 12.7 |
| 0.59 | C=C1C(=O)OC[C@H]1CCOC(=O)Nc1cccc(Br)c1 | > 94 | 21.8 |
| 0.84 | C=C1C(=O)OC[C@@H]1CCOC(=O)Nc1cccc(Br)c1 | > 94 | 17.7 |
| 1.24 | C=C1C(=O)OC[C@@H]1CCOC(=O)Nc1cc(C)cc(C)c1 | > 94 | 13.6 |
| 0.96 | C=C1C(=O)OC[C@H]1CCOC(=O)Nc1cc(C(F)(F)F)cc(C(F)(F)F)c1 | > 94 | 13.9 |
| 0.62 | C=C1C(=O)OC[C@H]1CCOC(=O)Nc1ccc(CCCC)cc1 | > 94 | 15.9 |
| 1.09 | C=C1C(=O)OC[C@H]1CCOC(=O)Nc1ccc(C)c(C)c1 | > 94 | 18.2 |
| 1.94 | C=C1C(=O)OC[C@H]1CCOC(=O)Nc1c(C)cccc1C(C)C | 80.7 | 22.2 |
| 0.35 | C=C1C(=O)OC[C@H]1CCOC(=O)Nc1ccccc1F | > 94 | 17.4 |
| 0.35 | C=C1C(=O)OC[C@H]1CCOC(=O)Nc1ccc(Br)cc1 | > 94 | 8.47 |
| 0.71 | C=C1C(=O)OC[C@H]1CCOC(=O)Nc1ccc(OC)cc1 | > 94 | 12.4 |
| 0.79 | C=C1C(=O)OC[C@@H]1CCOC(=O)Nc1ccc(I)cc1 | > 94 | 12.5 |
| 0.34 | C=C1C(=O)OC[C@H]1CCOC(=O)Nc1ccc(C(C)C)cc1 | > 94 | 12.4 |

| IC50 (RAW264.7 [3]) [µM] | SMILES | inhibition at 25 µM (RAW264.7 [1]) [%] | CC50 at 18 h [2] [µM] |
| --- | --- | --- | --- |
| 0.39 | C=C1C(=O)OC[C@H]1CCOC(=O)Nc1ccccc1 | > 94 | 14.8 |
| 1.58 | C=C1C(=O)OC[C@@H]1CCOC(=O)Nc1ccc(C(C)C)cc1 | > 94 | 15.3 |
| 5.98 | C=C1C(=O)OC[C@@H]1CCOC(=O)Nc1c(C)cccc1C(C)C | 39.5 | > 50 |
| 0.33 | C=C1C(=O)OC[C@H]1CCOC(=O)Nc1ccc(F)cc1F | > 94 | 24.5 |
| 0.84 | C=C1C(=O)OC[C@H]1CCOC(=O)Nc1ccc(CC)cc1 | > 94 | 11.3 |
| 0.43 | C=C1C(=O)OC[C@H]1CCOC(=O)Nc1ccc(C(=O)OCCCC)cc1 | > 94 | 8.94 |
| 0.78 | C=C1C(=O)OC[C@@H]1CCOC(=O)Nc1ccccc1 | > 94 | 22.3 |
| 1.45 | C=C1C(=O)OC[C@@H]1CCOC(=O)Nc1ccc(C)c(C)c1 | > 94 | 13.7 |
| 1.26 | C=C1C(=O)OC[C@@H]1CCOC(=O)Nc1ccc(CC)cc1 | > 94 | 7.58 |
| 0.69 | C=C1C(=O)OC[C@@H]1CCOC(=O)Nc1ccccc1F | > 94 | 24.2 |
| 0.49 | C=C1C(=O)OC[C@H]1CCOC(=O)Nc1ccc(I)cc1 | > 94 | 12.8 |
| 1.07 | C=C1C(=O)OC[C@@H]1CCOC(=O)Nc1ccc(Cl)cc1 | > 94 | 10.3 |
| 0.8 | C=C1C(=O)OC[C@@H]1CCOC(=O)Nc1cc(C(F)(F)F)cc(C(F)(F)F)c1 | > 94 | 12.4 |
| 1.23 | C=C1C(=O)OC[C@@H]1CCOC(=O)Nc1ccc(CCCC)cc1 | > 94 | 9.95 |
| 0.7 | C=C1C(=O)OC[C@@H]1CCOC(=O)Nc1ccc(F)cc1F | > 94 | 14.8 |
| 1.09 | C=C1C(=O)OC[C@@H]1CCOC(=O)Nc1ccc(OC)cc1 | > 94 | 11.9 |

| SMILES | IC50 (RAW264.7 [3]) [µM] | inhibition at 25 µM (RAW264.7 [1]) [%] | CC50 at 18 h [2] [µM] |
| --- | --- | --- | --- |
| N=C(N)NN [PIMAGEDINE] | 7.29 | – | – |
